What was measured:
[1] = system: cytochromes P-45011β and P-450scc; assay: Extraction of cytochromes P-45011β and P-450scc from mitochondrions of the bovine suprarenal cortex, and inactivation of the proteins; conditions: proteins 20 mg/ml, detergent 15 mg/ml; for Extraction rate [after 1 h] / Inactivation rate [after 1 h]: pH 7.4, after 1 h; for Extraction rate [after 2 h] / Inactivation rate [after 2 h]: pH 7.4, after 2 h
Text: For example, but without implying any limitation with regard to other uses, several alkyl-1-thio-α,β-glycosides prepared in the manner of the invention were used to extract membrane proteins from the bovine suprarenal cortex. The suprarenal cortex cells contain enzyme systems which cause steroidogenesis. […] In conventionally used methods, they are optimally extracted in the presence of sodium cholate. However, the ionic nature of the sodium cholate detergent results in a greater denaturation rate of the enzymatic proteins as the contact time between the proteins and the sodium cholate is prolonged. Accordingly, and in particular, the sodium cholate detergent presents difficulties when used to reconstitute the lipid environment of these proteins.
(§1) The membrane proteins are extracted by incubation in a suitable buffer containing 50 mM potassium phosphate, pH=7.4, 1 mM dithiothreitol, 1 mM EDTA, and 10 μM desoxycorticosterone. The respective concentrations of proteins and detergents are 20 and 15 mg/ml. Following incubation, the medium is centrifuged (100,000 g, 45 mins.) and the cytochromes P-450 are metered into the supernatant by recording the differential spectrum for the reduced form Fe^2+ and the complex Fe^2+ CO. Denaturation is estimated by the absorption difference measured at 450 nm (native form) and 420 nm (denatured form).

cytochrome P-45017α = assay: Extraction of cytochrome P-45017α from bovine suprarenal cortex microsomes, and inactivation of the protein; set-up: unit not given here; conditions: 30 mins. at 4° C, proteins 4 mg/ml, detergent 15 mg/ml
Text: These CMC values allow the glycosides to be used as detergents in membrane protein extraction. For example, but without implying any limitation with regard to other uses, several alkyl-1-thio-α,β-glycosides prepared in the manner of the invention were used to extract membrane proteins from the bovine suprarenal cortex. The suprarenal cortex cells contain enzyme systems which cause steroidogenesis. These are membrane enzymes in the mitochondrions (cytochromes P-45011β and P-450scc) and in the microsomes (cytochrome P-45017α). In conventionally used methods, they are optimally extracted in the presence of sodium cholate. However, the ionic nature of the sodium cholate detergent results in a greater denaturation rate of the enzymatic proteins as the contact time between the proteins and the sodium cholate is prolonged. Accordingly, and in particular, the sodium cholate detergent presents difficulties when used to reconstitute the lipid environment of these proteins.
as §1, with “The mitochondrions of the bovine suprarenal cortex are prepared in the manner of M. Satre & P. V. Vignais (Biochemistry, 13 (1974) 2201). The membrane” for “The membrane”
The extraction of cytochrome P-45017α involved obtaining the bovine suprarenal cortex microsomes in the form of a button after 45 mins. centrifugation at 100,000 g of the post-mitochondrial supernatant. The membrane proteins are extracted as indicated above in reference to Table 2 for 30 mins. at 4° C. The respective concentrations of the proteins and detergents are 4 and 15 mg/ml. Following centrifugation, the activity of cytochrome P-45017α is measured in the supernatant by checking the transformation of (^3 H)-pregnenolone into (^3 H)-17α-hydroxy-pregnenolone.

[2] = Critical micelle concentration (CMC), Tsuchiya and Saito method; assay type: physicochemical; conditions: α,β anomer mixtures
Text: The critical micelle concentrations as measured according to the Tsuchiya and Saito method, J. Biochem., 96 (1984), 1593, are set forth in Table 1 for various fatty acid chain alkyl-1-thio-α,β-glycosides prepared according to the present invention.

[3] = Chem. Pharm. Bull., 33 (1985), 503-8; cited from earlier work

Row | SMILES | Extraction rate [after 1 h] [1] [%] | Inactivation rate [after 1 h] [1] [%] | Extraction rate [after 2 h] [1] [%] | Inactivation rate [after 2 h] [1] [%] | Extraction rate (cytochrome P-45017α) | Inactivation rate (cytochrome P-45017α) | Critical micelle concentration (CMC) [2] [mM] | CMC of the prior art mentioned in the literature [3] [mM]
1 | CCCCCCCCO[C@@H]1O[C@H](CO)[C@@H](O)[C@H](O)[C@H]1O [1-octyl-β-D-glucopyranoside, reference compound] | 0 | 100 | 0 | 100 | 89 | 20 |  | 
2 | CCCCCCCCSC1O[C@H](CO)[C@@H](O[C@H]2O[C@H](CO)[C@@H](O)[C@H](O)[C@H]2O)[C@H](O)[C@H]1O (stereo partly drawn) [1-octyl-1-thio-α,β-maltoside] | 0 | 48 | 21 | 94 | 58 | 0 | 0.2 | 
3 | C[C@H](CCC(=O)O)[C@H]1CC[C@H]2[C@@H]3[C@H](O)C[C@@H]4C[C@H](O)CC[C@]4(C)[C@H]3C[C@H](O)[C@]12C [sodium cholate, reference compound] | 0 | 94 |  |  |  |  |  | 
4 | CCCCCCCCSC1O[C@H](CO)[C@@H](O[C@@H]2O[C@H](CO)[C@@H](O)[C@H](O)[C@H]2O)[C@H](O)[C@H]1O (stereo partly drawn) [1-octyl-1-thio-α,β-cellobioside] | 0 | 55 | 0 | 20 | 72 | 0 | 0.2 | 
5 | CCCCCCCCSC1O[C@H](CO)[C@@H](O)[C@H](O)[C@H]1O (stereo partly drawn) [1-octyl-1-thio-α,β- -- D-glucopyranoside, 1-octyl-1-thio-α,β-D-glucopyranoside] | 43 | 60 | 49 | 72 | 93 | 0 | 3.0 | 
6 | CCCCCCCCSC1O[C@H](CO)[C@@H](O[C@@H]2O[C@H](CO)[C@H](O)[C@H](O)[C@H]2O)[C@H](O)[C@H]1O (stereo partly drawn) [1-octyl-1-thio-α,β-lactoside] | 0 | 55 | 0 | 62 | 65 | 57 | 0.2 | 
7 | CCCCCCCSC1O[C@H](CO)[C@@H](O)[C@H](O)[C@H]1O (stereo partly drawn) [1-heptyl-1-thio-α,β-D-glucopyranoside] | 0 | 48 | 0 | 47 | 85 | 0 | 4.1 | 
8 | CCCCCCCSC1O[C@H](CO)[C@@H](O[C@@H]2O[C@H](CO)[C@H](O)[C@H](O)[C@H]2O)[C@H](O)[C@H]1O (stereo partly drawn) [1-heptyl-1-thio-α,β-lactoside] | 0 | 30 | 0 | 50 | 57 | 0 |  | 
9 | CCCCCCCCS[C@@H]1O[C@H](CO)[C@@H](O)[C@H](O)[C@H]1O [1-octyl-1-thio-β- -- D-glucopyranoside, 1-octyl-1-thio-β-D-glucopyranoside, reference compound] | 0 | 18 | 48 | 91 | 31 | 0 |  | 9.0

— US5118804A, “Process for preparing alkyl-1-thioglycosides and alkyl-glycosides, anomer mixtures thereof” (Beghin-Say, SA, priority 1989, dated 1992)
